# Publication PMC3894558, “Chemical signatures and new drug targets for gametocytocidal drug development” (Scientific Reports, 2014)
# Like-named read-outs stand apart in the source and are kept apart here.
# Tested on: P. falciparum 3D7 gametocytes
# Test: alamarBlue gametocyte viability assay, strain 3D7
# Assay type: cell-based, Plasmodium falciparum
# Conditions: Malaria Box; for Max Resp: DMSO set at 0%, 100 nM epoxomicin set at -100%; for Curve Class / IC50: stages III-V 3D7 gametocytes; for IC50: 11 concentrations, 1:3 dilution; call rule not given here
Structure (SMILES),Max Resp [%],Curve Class,IC50,IC50 (read-out: IC50) [µM]
Cc1ccc(CSCc2ccc(C(=O)NC3CC3)o2)cc1 [MMV007571],6,4,Inactive,
O=C(Nc1ccc(C23CC4CC(CC(c5ccccc5)(C4)C2)C3)cc1)c1cccs1 [MMV007574],12,4,Inactive,
Cc1ccccc1OCCSc1nc2ccc(NC(=O)c3ccccc3)cc2s1 [MMV007577],18,4,Inactive,
COc1ccc(C(=O)C(CCC(CNC(C)(C)C)C(=O)c2ccc(OC)cc2)CNC(C)(C)C)cc1 (stereo not drawn) [MMV007591],-109,-1.1,,2.64
CC(=O)NCCc1nc2ccccc2n1Cc1ccc(C(C)C)cc1 [MMV007617],-70,-2.2,,23.5
Br.Cc1ccc(C)c(-c2csc(Nc3ccc(C)c(C)c3)n2)c1 [MMV007654],-3,4,Inactive,
CCCCCCOC(=O)C1=C(C)NC(=O)NC1c1ccccc1F (stereo not drawn) [MMV007686],-2,4,Inactive,
COc1ccc(C(C)=O)cc1N1C(=O)C2C(C1=O)C1(c3ccccc3)C(=O)C2(c2ccccc2)C(c2ccc(C)cc2)=C1c1ccc(C)cc1 (stereo not drawn) [MMV007695],17,4,Inactive,
CCOc1ccccc1NC(=O)CN1CCN(C(=O)c2ccco2)CC1 [MMV007791],1,4,Inactive,
COc1nc(Nc2ccc(C(C)C)cc2)nc(OC)n1 [MMV007808],-9,4,Inactive,
COc1ccc2c(c1)OC(O)(C(F)(F)C(F)(F)F)CC2=O (stereo not drawn) [MMV007839],-23,4,Inactive,
COc1ccc2nc(C)cc(Nc3ccc(Cl)cc3)c2c1 [MMV007875],-72,-2.2,,23.5
CCCCN(CCCC)S(=O)(=O)c1ccc(NC(=O)c2ccco2)cc1 [MMV007881],15,4,Inactive,
CCCCOc1ccc(C(=O)Nc2cc(C)on2)cc1 [MMV007906],12,4,Inactive,
Cc1ccc(Nc2nc(-c3ccccn3)cs2)cc1 [MMV007907],-73,-2.2,,7.43
O=c1nc(C=Cc2ccc(Cl)cc2)oc2ccccc12 [MMV007977],25,4,Inactive,
CCOc1ccc(CCNC(=O)c2cccs2)cc1OCC [MMV007978],-13,4,Inactive,
CN1CCN(c2c3c(c(C#N)c4nc5ccccc5n24)CCC3)CC1 [MMV008127],-5,4,Inactive,
O=C(O)C1Cc2c([nH]c3ccccc23)C(c2ccc(Cl)cc2Cl)N1 (stereo not drawn) [MMV008138],-1,4,Inactive,
Cc1c(C)n(Cc2ccc(F)cc2)c2ccc(C(=O)NCc3ccco3)cc12 [MMV008149],17,4,Inactive,

Structure (SMILES),Max Resp [%],Curve Class,IC50,IC50 (read-out: IC50) [µM]
CN1C=C(c2ccc3ccccc3n2)C(c2c[nH]c3ccccc23)c2ccccc21 (stereo not drawn) [MMV008160],-87,-2.1,,14.8
COc1cc(OC)cc(N2C(=O)N(Cc3ccc(C(C)(C)C)cc3)c3ccccc3S2(=O)=O)c1 [MMV008173],0,4,Inactive,
COc1ccc2nc(C)cc(Nc3cccc(O)c3)c2c1.Cl [MMV008212],-64,-2.2,,29.6
CCOC(=O)c1cnc2c(C)cc(C)cc2c1Nc1ccc(OC)c(OC)c1 [MMV008294],-8,4,Inactive,
CCCc1c(CC)c(=N)c2ccccc2n1C [MMV008416],-53,-2.2,,37.2
COc1ccc(C2C(C(=O)Nc3cccc(OC)c3)c3ccccc3C(=O)N2C2CCCCC2)cc1 (stereo not drawn) [MMV008455],-89,-2.1,,16.6
CCN1CCN(c2c(C(=O)c3ccccc3)cnc3cc(OC)c(OC)cc23)CC1 [MMV008474],-32,-2.4,Inactive,
CCCn1c(=N)c(C(=O)NC2CCCCC2)cc2c(=O)n3cccc(C)c3nc21 [MMV008829],-26,4,Inactive,
CCOc1cc2c(cc1OCC)C(c1cc(OC)c(O)cc1Cl)NCC2 (stereo not drawn) [MMV008956],-73,-1.2,,3.32
O=C(CCc1ccccc1)c1ccccc1OCC(O)CN1CCCCC1 (stereo not drawn) [MMV009015],-74,-2.2,,7.43
CCN(CC)c1ccc(NC(=O)c2cccs2)cc1 [MMV009060],20,4,Inactive,
OC(CNC1CCCCC1)Cn1c2ccccc2c2ccccc21 (stereo not drawn) [MMV009063],-99,-1.1,,2.35
O=C1c2ccc3c4c(ccc(c24)C(=O)N1CCCCO)C(=O)N(CCCCO)C3=O [MMV009085],-71,-2.2,,14.8
Br.CCN(CC)S(=O)(=O)c1ccc(-c2csc(Nc3ccc(C)c(C)c3)n2)cc1 [MMV009108],-14,4,Inactive,
CC1CCN(Cc2c(O)ccc3cc(-c4nc5ccccc5s4)c(=O)oc23)CC1 [MMV009127],-72,-2.2,,29.6
Cc1cc(Nc2ccc3ccccc3c2)n2ncnc2n1 [MMV011099],-5,4,Inactive,
Cc1cc(Nc2ccc(Cl)cc2)n2nc(C(F)(F)F)nc2n1 [MMV011256],-9,4,Inactive,
Cc1cc(C)cc(Nc2cc(C)nc3nc(C(F)(F)F)nn23)c1 [MMV011259],4,4,Inactive,
Cc1ccc(Nc2nc(N)c3ccccc3n2)cc1Cl [MMV011522],-73,-2.2,,14.8
COc1ccc(C(=O)Nc2nonc2-c2ccc(OC)c(OC)c2)cc1Cl [MMV011567],1,4,Inactive,

Structure (SMILES),Max Resp [%],Curve Class,IC50,IC50 (read-out: IC50) [µM]
CCOC(=O)C1CCN(C(=O)CN2C(=O)c3ccccc3C2c2c[nH]c3ccccc23)CC1 (stereo not drawn) [MMV011576],-98,-1.1,,3.72
O=C(O)C(=O)O.Oc1ccccc1CN1CCN(C(c2ccccc2)c2ccccc2)CC1 [MMV011795],-53,-2.2,,5.9
Oc1ccc2ccccc2c1CNc1nc2ccccc2[nH]1 [MMV011832],-67,-2.2,,29.6
Nc1ccc(-c2nc3cc(Oc4ccc(Oc5ccc6[nH]c(-c7ccc(N)cc7)nc6c5)cc4)ccc3[nH]2)cc1 [MMV011895],-78,-2.2,,18.7
COc1cccc(Nc2nc(NCCO)c3ccccc3n2)c1.Cl [MMV011944],-68,-2.2,,14.8
Cc1cc(NC(=O)c2ccc(-c3ccccc3)cc2)no1 [MMV018984],14,4,Inactive,
COCCNCC(O)Cn1c2ccc(Cl)cc2c2cc(Cl)ccc21 (stereo not drawn) [MMV019017],-94,-1.1,,2.64
COc1cccc(-c2nn(C)c3sc(C(=O)NCCN4CCN(c5ccccc5F)CC4)cc23)c1 [MMV019064],-42,-2.2,Inactive,
COc1ccccc1CNC(=O)CCn1c(=O)[nH]c2ccsc2c1=O [MMV019066],-11,4,Inactive,
CCN1CCN(c2cc(C)c3cc(NC(=O)c4ccc(OC)c(OC)c4)ccc3n2)CC1 [MMV019074],-32,-2.2,Inactive,
Cc1cccc(Nc2nc(N)c3ccccc3n2)c1.Cl [MMV019110],-65,-2.2,,18.7
CCN(Cc1ccccc1)C1CCN(Cc2cc(Br)ccc2O)CC1.O=C(O)C(=O)O [MMV019127],-56,-1.2,,0.935
COc1cccc(Nc2nc(N)c3ccccc3n2)c1.Cl [MMV019199],-66,-2.2,,23.5
CCOc1cccc(C(=O)Nc2ccc(-c3nc4ccccc4[nH]3)cc2)c1 [MMV019202],-23,4,Inactive,
O=C(Nc1ccc(-c2nc3cc4ccccc4cc3[nH]2)cc1)c1cccc(Br)c1 [MMV019241],-32,-2.4,Inactive,
COc1ccc(-n2ccnc2SCC(=O)Nc2cc(C)ccc2C)c(OC)c1 [MMV019258],-8,4,Inactive,
Cc1sc2ncnc(Sc3nc4ccccc4[nH]3)c2c1C [MMV019266],-72,-2.2,,11.8
Cn1c(=O)c2cc(C(=O)NCCCN3CCCCCC3)sc2c2ccccc21 [MMV019313],-46,-2.2,Inactive,
